ChEMBL document CHEMBL5233274, “Current Landscape and Future Perspective of Oxazolidinone Scaffolds Containing Antibacterial Drugs” (J Med Chem, 2021)
≈ marks a conversion by molar mass, not a printed value. Where “and” joins values, the source holds several entries; their conditions need not be identical. Identical values can stand only once.

Experiments:
Format in all cases: functional
Pseudomonas aeruginosa [1] = assay: Antibacterial activity against Pseudomonas aeruginosa assessed as inhibition of bacterial growth measured per 100 uL incubated for 24 hrs by agar well diffusion method
Candida albicans = assay: Antifungal activity against Candida albicans assessed as inhibition of fungal growth incubated measured per 100 uL incubated for 24 hrs by agar well diffusion method
Saccharomyces cerevisiae = assay: Antifungal activity against Saccharomyces cerevisiae assessed as inhibition of fungal growth incubated measured per 100 uL incubated for 24 hrs by agar well diffusion method
Escherichia coli [2] = assay: Antibacterial activity against Escherichia coli assessed as inhibition of bacterial growth measured per 100 uL incubated for 24 hrs by agar well diffusion method
Staphylococcus aureus [3] = assay: Antibacterial activity against Staphylococcus aureus assessed as inhibition of bacterial growth measured per 100 uL incubated for 24 hrs by agar well diffusion method
Bacillus subtilis [4] = assay: Antibacterial activity against Bacillus subtilis assessed as inhibition of bacterial growth measured per 100 uL incubated for 24 hrs by agar well diffusion method
Staphylococcus aureus [5] = assay: Antibacterial activity against Staphylococcus aureus NCIM 5257 assessed as inhibition of bacterial growth incubated for 24 hrs by serial broth dilution method
Bacillus subtilis [6] = assay: Antibacterial activity against Bacillus subtilis NCIM 2097 assessed as inhibition of bacterial growth incubated for 24 hrs by serial broth dilution method
Escherichia coli [7] = assay: Antibacterial activity against Escherichia coli NCIM 2065 assessed as inhibition of bacterial growth incubated for 24 hrs by serial dilution method
Klebsiella pneumoniae = assay: Antibacterial activity against Klebsiella pneumoniae NCIM 5289 assessed as inhibition of bacterial growth incubated for 24 hrs by serial dilution method
Pseudomonas aeruginosa [8] = assay: Antibacterial activity against Pseudomonas aeruginosa NCIM 5210 assessed as inhibition of bacterial growth incubated for 24 hrs by serial dilution method
Enterococcus faecalis [9] = assay: Antibacterial activity against Streptococcus faecalis NCIM 2080 assessed as inhibition of bacterial growth incubated for 24 hrs by serial dilution method
Enterococcus = assay: Antibacterial activity against vancomycin-resistant Enterococcus assessed as inhibition of bacterial growth by CLSI protocol based method
Staphylococcus aureus [10] = assay: Antibacterial activity against Staphylococcus aureus ATCC 29213 assessed as inhibition of bacterial growth by CLSI protocol based method
Staphylococcus aureus [11] = assay: Antibacterial activity against methicillin-resistant Staphylococcus aureus assessed as inhibition of bacterial growth by CLSI protocol based method
[12] = system: Staphylococcus epidermidis; assay: Antibacterial activity against Staphylococcus epidermidis ATCC 12228 assessed as inhibition of bacterial growth incubated for 18 to 24 hrs by CLSI protocol based Tryptic soy broth method; conditions: time 18-24 hrs
Staphylococcus aureus [13] = assay: Antibacterial activity against methicillin-resistant Staphylococcus aureus assessed as inhibition of bacterial growth incubated for 18 to 24 hrs by CLSI protocol based Tryptic soy broth method; conditions: time 18-24 hrs
Staphylococcus aureus [14] = assay: Antibacterial activity against Staphylococcus aureus ATCC 25923 assessed as inhibition of bacterial growth incubated for 18 to 24 hrs by CLSI protocol based Tryptic soy broth method; conditions: time 18-24 hrs
Enterococcus faecalis [15] = assay: Antibacterial activity against Enterococcus faecalis ATCC 29212 assessed as inhibition of bacterial growth incubated for 18 to 24 hrs by CLSI protocol based Tryptic soy broth method; conditions: time 18-24 hrs

SMILES | MIC (Pseudomonas aeruginosa [1]) | MIC (Candida albicans) | MIC (Escherichia coli [2]) | MIC (Staphylococcus aureus [3]) | MIC (Bacillus subtilis [4]) | MIC [12] | MIC (Staphylococcus aureus [13]) | MIC (Staphylococcus aureus [14]) | MIC (Enterococcus faecalis [15]) | other results
O=C1NC(Cc2ccc(Nc3nc(-c4ccc(Cl)cc4)cs3)cc2)CO1 (configuration not stated) | 12.5 µg | 12.5 µg | 12.5 µg | 6.25 µg | 6.25 µg |  |  |  |  | MIC (Saccharomyces cerevisiae): 12.5 µg
O=C(/C=C/c1ccc(O)cc1)c1ccc(-c2ccc(N3C[C@H](CO)OC3=O)cc2)cc1 |  |  |  |  |  |  |  |  |  | MIC (Staphylococcus aureus [5]): 3.12 µg/mL (≈ 7.52 µM); MIC (Bacillus subtilis [6]): 3.12 µg/mL (≈ 7.52 µM); MIC (Escherichia coli [7]): 3.12 µg/mL (≈ 7.52 µM); MIC (Klebsiella pneumoniae): 3.12 µg/mL (≈ 7.52 µM); MIC (Pseudomonas aeruginosa [8]): 3.12 µg/mL (≈ 7.52 µM); MIC (Enterococcus faecalis [9]): 3.12 µg/mL (≈ 7.52 µM)
O=C1NC(Cc2ccc(Nc3nc(-c4ccc(-c5ccccc5)cc4)cs3)cc2)CO1 (configuration not stated) | 12.5 µg | 12.5 µg | 12.5 µg | 6.25 µg | 6.25 µg |  |  |  |  | MIC (Saccharomyces cerevisiae): 12.5 µg
CC(=O)NC[C@H]1CN(c2ccc(N3CCN(/N=C/c4ncc(N)n4C)CC3)c(F)c2)C(=O)O1 |  |  |  |  |  |  |  |  |  | MIC (Enterococcus): > 8 µg/mL; MIC (Staphylococcus aureus [10]): > 8 µg/mL; MIC (Staphylococcus aureus [11]): > 8 µg/mL
Cc1nc(C)c(COc2ccc(N3C[C@H](CO)OC3=O)cc2F)nc1C |  |  |  |  |  | 128 µg/mL (≈ 354 µM) | 64 µg/mL (≈ 177 µM) | 64 µg/mL (≈ 177 µM) | 64 µg/mL (≈ 177 µM) | 
O=C1NC(Cc2ccc(Nc3nc(-c4cccc(Cl)c4)cs3)cc2)CO1 (configuration not stated) | 12.5 µg | 12.5 µg | 12.5 µg | 12.5 µg | 12.5 µg |  |  |  |  | MIC (Saccharomyces cerevisiae): 12.5 µg
CC(=O)NC[C@H]1CN(c2ccc(N3CCN(/N=C/c4c(Cl)cccc4[N+](=O)[O-])CC3)c(F)c2)C(=O)O1 |  |  |  |  |  |  |  |  |  | MIC (Enterococcus): 8 µg/mL (≈ 15.4 µM); MIC (Staphylococcus aureus [10]): 8 µg/mL (≈ 15.4 µM); MIC (Staphylococcus aureus [11]): 8 µg/mL (≈ 15.4 µM)
Cc1nc(C)c(COc2ccc(N3C[C@H](CNC(=O)CCl)OC3=O)cc2)nc1C |  |  |  |  |  | 8 µg/mL (≈ 19.1 µM) | 8 µg/mL (≈ 19.1 µM) | 8 µg/mL (≈ 19.1 µM) | 16 µg/mL (≈ 38.2 µM) | 
CC(=O)NC[C@H]1CN(c2ccc(N3CCN(/N=C(\C)Cn4c([N+](=O)[O-])cnc4C)CC3)c(F)c2)C(=O)O1 |  |  |  |  |  |  |  |  |  | MIC (Enterococcus): 4 µg/mL (≈ 7.74 µM); MIC (Staphylococcus aureus [10]): 1 µg/mL (≈ 1.94 µM); MIC (Staphylococcus aureus [11]): 1 µg/mL (≈ 1.94 µM)
Cc1nc(C)c(COc2ccc(N3C[C@H](CNC(=O)CCl)OC3=O)cc2F)nc1C |  |  |  |  |  | 4 µg/mL (≈ 9.16 µM) | 2 µg/mL (≈ 4.58 µM) | 8 µg/mL (≈ 18.3 µM) | 8 µg/mL (≈ 18.3 µM) | 
O=C1NC(Cc2ccc(Nc3nc(-c4c(O)oc(O)cc4=O)cs3)cc2)CO1 (configuration not stated) | 6.25 µg | 12.5 µg | 12.5 µg | 6.25 µg | 25 µg |  |  |  |  | MIC (Saccharomyces cerevisiae; 24 h): 12.5 µg and 6.25 µg
C[C@@H]1[C@H](O)[C@@H](C)/C=C/C=C/C=C/C=C/C=C/C=C/C=C/[C@H](O[C@@H]2O[C@H](C)[C@@H](O)[C@H](N)[C@@H]2O)C[C@@H]2O[C@](O)(C[C@@H](O)C[C@@H](O)[C@H](O)CC[C@@H](O)C[C@@H](O)CC(=O)O[C@H]1C)C[C@H](O)[C@H]2C(=O)O [AMPHOTERICIN B] |  | 6.25 µg | 6.25 µg |  |  |  |  |  |  | 
Cc1nc(C)c(COc2ccc(N3C[C@H](CNC(=O)C(Cl)Cl)OC3=O)cc2F)nc1C |  |  |  |  |  | 4 µg/mL (≈ 8.49 µM) | 2 µg/mL (≈ 4.24 µM) | 4 µg/mL (≈ 8.49 µM) | 8 µg/mL (≈ 17 µM) | 
O=C1NC(Cc2ccc(Nc3nc(-c4ccc([N+](=O)[O-])cc4)cs3)cc2)CO1 (configuration not stated) | 12.5 µg | 12.5 µg | 12.5 µg | 6.25 µg | 6.25 µg |  |  |  |  | MIC (Saccharomyces cerevisiae): 12.5 µg
O=C1NC(Cc2ccc(Nc3nc(-c4ccccc4F)cs3)cc2)CO1 (configuration not stated) | 12.5 µg | 12.5 µg | 12.5 µg | 12.5 µg | 12.5 µg |  |  |  |  | MIC (Saccharomyces cerevisiae): 12.5 µg
COCC(=O)NC[C@H]1CN(c2ccc(OCc3nc(C)c(C)nc3C)cc2)C(=O)O1 |  |  |  |  |  | 128 µg/mL (≈ 309 µM) | 64 µg/mL (≈ 154 µM) | > 128 µg/mL | > 128 µg/mL | 
Cc1nc(C)c(COc2ccc(N3C[C@H](CNC(=O)c4ccco4)OC3=O)cc2F)nc1C |  |  |  |  |  | 16 µg/mL (≈ 35.2 µM) | 32 µg/mL (≈ 70.4 µM) | 32 µg/mL (≈ 70.4 µM) | 128 µg/mL (≈ 282 µM) | 
Cc1nc(C)c(COc2ccc(N3C[C@H](Cn4ccnn4)OC3=O)cc2F)nc1C |  |  |  |  |  | 8 µg/mL (≈ 19.4 µM) | 4 µg/mL (≈ 9.7 µM) | 8 µg/mL (≈ 19.4 µM) | 32 µg/mL (≈ 77.6 µM) | 
CC(=O)NC[C@H]1CN(c2ccc(N3CCN(Cc4ccc([N+](=O)[O-])o4)CC3)c(F)c2)C(=O)O1 [RANBEZOLID] |  |  |  |  |  |  |  |  |  | MIC (Enterococcus): 2 µg/mL (≈ 4.33 µM); MIC (Staphylococcus aureus [10]): 1 µg/mL (≈ 2.17 µM); MIC (Staphylococcus aureus [11]): 2 µg/mL (≈ 4.33 µM)
CC(=O)NC[C@H]1CN(c2ccc(N3CCN(/N=C/c4ccc([N+](=O)[O-])s4)CC3)c(F)c2)C(=O)O1 |  |  |  |  |  |  |  |  |  | MIC (Enterococcus): 2 µg/mL (≈ 4.08 µM); MIC (Staphylococcus aureus [10]): 0.25 µg/mL (≈ 0.51 µM); MIC (Staphylococcus aureus [11]): 1 µg/mL (≈ 2.04 µM)
